Assay [1] deals with T1, biotinylated truncated STAT6 (123-632)-avi (Homo sapiens, UniProt P42226).
T1 construct: biotinylated truncated STAT6 (123-632)-avi purified from E. coli; made in house; host or cells: E. coli
T1 sequence (P42226 123-632 limits assumed): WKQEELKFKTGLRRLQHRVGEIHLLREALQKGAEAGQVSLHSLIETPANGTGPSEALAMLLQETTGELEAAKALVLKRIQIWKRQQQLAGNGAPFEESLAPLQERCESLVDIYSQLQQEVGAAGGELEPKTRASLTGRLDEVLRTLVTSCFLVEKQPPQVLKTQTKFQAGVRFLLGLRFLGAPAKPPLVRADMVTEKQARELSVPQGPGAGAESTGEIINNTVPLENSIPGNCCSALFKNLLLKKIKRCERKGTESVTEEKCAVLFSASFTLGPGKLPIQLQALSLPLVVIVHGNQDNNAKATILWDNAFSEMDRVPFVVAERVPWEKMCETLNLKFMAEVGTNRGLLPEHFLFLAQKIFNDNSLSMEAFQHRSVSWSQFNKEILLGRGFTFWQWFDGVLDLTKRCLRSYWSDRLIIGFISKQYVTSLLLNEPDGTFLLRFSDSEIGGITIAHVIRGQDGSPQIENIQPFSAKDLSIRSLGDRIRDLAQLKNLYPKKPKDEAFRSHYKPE
Put plainly: STAT6 HTRF binding assay. The note with it: HTRF binding, 0.15 nM biotinylated truncated STAT6 (123-632)-avi, 20 nM fluorescein-labeled probe. As to the method: HTRF binding assays were performed using 0.15 nM biotinylated truncated STAT6 (123-632)-avi purified from E. coli, 1× Streptavidin-terbium (CisBio) prepared by mixing SA-Tb in PPI detection buffer (CisBio), 20 nM proprietary fluorescein-labeled probe, and test compounds in assay buffer consisting of 50 mM HEPES-Na pH 7.5, 100 mM NaCl, 1 mM EDTA, 2 mM DTT, 0.1% Tween-20 with a final volume of 20 uL. Compound stocks were dissolved at 10 mM in 100% DMSO and 11 point titration with 3 fold serial dilution was performed in white, opaque 384 well microplates. Reaction plates were incubated at room temperature for 30 minutes. Plates were centrifuged at low rpm for 5 mins, and the ratio of fluorescence intensities were measured at emission wavelengths for fluorescein acceptor (520 nm) and terbium donor (495 nm) on Envision Plate reader. % Inhibition was calculated from the 520/495 ratio generated by using proprietary positive control compound for 100% inhibition and DMSO only reactions for 0% inhibition. Data was processed and dose response curves were generated using GraphPad Prism to determine the concentration required for inhibiting 50% of the HTRF signal (IC50).
The letter codes for IC50 (μM) include: A (<0.1 μM); B (0.1-1 μM); C (>1-10 μM); D (>10-100 μM); E (>100 μM); and F (not tested).

For assay [2], the target named is T2, STAT6-HiBiT (Homo sapiens, UniProt P42226).
T2 construct: Degradation of STAT6 in endogenously tagged STAT6-HiBiT A549 cells; endogenous in cells; host or cells: A549 (STAT6-HiBiT) knock-in cells
T2 sequence (P42226 1-847): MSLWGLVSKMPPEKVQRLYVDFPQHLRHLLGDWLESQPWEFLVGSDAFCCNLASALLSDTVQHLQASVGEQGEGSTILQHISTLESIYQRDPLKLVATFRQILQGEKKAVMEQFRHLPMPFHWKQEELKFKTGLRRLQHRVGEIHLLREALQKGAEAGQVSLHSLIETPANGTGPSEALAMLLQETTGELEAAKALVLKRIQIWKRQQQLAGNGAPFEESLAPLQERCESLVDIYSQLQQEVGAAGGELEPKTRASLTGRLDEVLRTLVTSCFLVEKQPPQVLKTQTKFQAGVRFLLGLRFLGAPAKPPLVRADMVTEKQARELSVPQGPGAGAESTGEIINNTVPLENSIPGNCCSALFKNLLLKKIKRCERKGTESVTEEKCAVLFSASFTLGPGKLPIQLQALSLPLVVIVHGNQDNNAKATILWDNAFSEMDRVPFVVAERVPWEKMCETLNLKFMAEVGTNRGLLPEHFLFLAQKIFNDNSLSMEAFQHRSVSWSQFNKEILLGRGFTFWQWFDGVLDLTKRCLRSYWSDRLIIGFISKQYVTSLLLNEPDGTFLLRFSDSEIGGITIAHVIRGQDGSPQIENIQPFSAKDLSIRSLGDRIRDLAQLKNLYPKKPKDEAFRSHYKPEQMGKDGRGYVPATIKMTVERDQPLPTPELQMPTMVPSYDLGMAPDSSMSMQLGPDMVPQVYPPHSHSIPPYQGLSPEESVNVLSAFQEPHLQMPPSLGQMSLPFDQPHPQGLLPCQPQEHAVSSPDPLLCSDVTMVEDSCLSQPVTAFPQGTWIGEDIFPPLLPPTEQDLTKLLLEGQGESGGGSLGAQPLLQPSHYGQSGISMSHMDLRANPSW
Put plainly: STAT6 HiBiT degradation in A549 (STAT6-HiBiT) cells. The assay is classed as cell-based. Conditions: 24 h. The procedure:
Degradation of STAT6 in endogenously tagged STAT6-HiBiT A549 cells was quantitatively measured using the Nano-Glo HiBiT Lytic Detection System (Promega, 3040). A549 (STAT6-HiBiT) cells were seeded in 384-well plates with a density of 1.25k cells per well in 20 μl fresh media. Compounds were then added to the assay plates using the Apricot S3 with a final top concentration of up to 10 uM in a 4-fold dilution series with total of 10 doses. The assay plates were then incubated for 24 hours at 37° C. under 5% CO2. At the assay endpoint, 20 μL of Nano-Glo HiBiT Lytic Reagent was added to each well and agitated on a plate shaker at 300 rpm for 10 minutes at room temperature. Luminescence was read on PHERAStar FSX Instrument (Is integration time). The data was analyzed by GraphPad Prism and the dose dependent STAT6 degradation was fit using the four-parameter inhibitor vs. response nonlinear regression.
The letter codes for DC50 (nM) include: A (<1 nM): B (1-10 nM); C (>10-100 nM); D (>100-1000 nM); E (>1000 nM); and F (not tested). The letter codes for Dmax (%) include: A (>90%); B (>70-90%); C (>50-70%); D (<50%); and E (not tested).

For assay [3], the target named is T3, STAT6 (Homo sapiens, UniProt P42226).
T3 construct: endogenous in cells; host or cells: A549
T3 sequence (P42226 1-847): T2 sequence (P42226 1-847)
The assay is described as follows: STAT6 MSD degradation in A549 cells. The assay is classed as cell-based. The note with it: 24 h. The procedure: Degradation of STAT6 in cells was quantitatively measured using Meso Scale Discovery (MSD) technology. A549 cells were seeded in 96-well plates with a density of 1.5×10e4 to 5×10e5 cells per well in 100 μl fresh media. Compounds were then added to the assay plates with a final top concentration of up to 10 uM in a 1:3 dilution series with total of 9 doses. The assay plates were then incubated for 4 to 24 hours at 37° C. under 5% CO2. The assay plates were then centrifuged for 5 minutes and the cell pellets were treated with 100 μl/well RIPA lysis buffer (Boston Bioproducts, BP-115D) with protease and phosphatase inhibitors (Roche, 05892791001 and 04906837001). To prepare the MSD assay plates (MSD, L15XA), the plates were coated with the capture antibody (Abnova, H00006778) in PBS, at 40 μl/well. The plates were then incubated overnight at 4° C., washed 1 time with 150 μl/well TBST buffer (Cell Signaling Technology, #9997S) and blocked with 150 μl/well blocking buffer (MSD, R93BA-4). Cell lysates were then added to MSD assay plates and the plates were incubated at room temperature for 1 hour. The plates were then washed 3 times with 150 μl/well TBST buffer and 25 μl/well primary detection antibody (Cell Signaling Technology, #5397S). The assay plates were then incubated at room temperature for 1 hour, washed 3 times with 150 μl/well TBST buffer, and 25 μl/well secondary detection antibody, SULFO-TAG anti-rabbit antibody (MSD, R32AB-1) were added. The assay plates were then incubated at room temperature for 1 hour, washed 3 times with 150 μl/well TBST buffer, and 150 μl/well MSD reading buffer (MSD, R92TC-2) were added. The plates were then analyzed by an MSD reader. The data was analyzed by GraphPad Prism and the dose dependent STAT6 degradation was fit using the four-parameter inhibitor vs. response nonlinear regression.
The letter codes for DC50 (nM) include: A (<1 nM); B (1-10 nM); C (>10-100 nM); D (>100-1000 nM); E (>1000 nM); and F (not tested). The letter codes for Dmax (oo) include: A (>90%); B (>70-90%); C (>50-70%); D ([…]); and F (not tested).

One may read the IC50 as the concentration at which inhibition is half-maximal. Low values mean inhibition by little substance, high ones a need for much substance. In general, DC50 refers to the concentration at which degradation of the target reaches its halfway point. As a reminder, the Dmax is the greatest extent of degradation seen. Read a low Dmax as shallow degradation.

In assay [1], `Cc1nn([C@H]2CCC(=O)NC2=O)c2cccc(CCN3CCN(c4cc(Cl)c(-c5cc(C6=CCCN(C(=O)CCn7cccn7)C6)c(F)c6[nH]c(C(=O)N(C)C)cc56)cc4F)CC3)c12` (single isomer, unassigned) [Example I-1078] had an IC50 of less than 100 nM. Besides, in assay [2], the 50% degradation concentration (DC50) was less than 1 nM and the Dmax is greater than 90%.

Regarding `Cc1nn(C2CCC(=O)NC2=O)c2cccc(CCN3CCN(c4cc(Cl)c(-c5cc(C6=CCCN(C(=O)CCn7cccn7)C6)c(F)c6[nH]c(C(=O)N(C)C)cc56)cc4F)CC3)c12` (single isomer, unassigned) [Example I-1079], the half-maximal inhibitory concentration (IC50) in assay [1] is less than 100 nM. In assay [2], this compound registered a DC50 of less than 1 nM and a maximal degradation (Dmax) greater than 90%.

In turn, `CN(C)C(=O)c1cc2c(-c3ccc(C4CCN(c5ccc([C@@H]6CCC(=O)NC6=O)cc5F)CC4)cc3)cc(C3=CCCN(C(=O)CCn4ccnn4)C3)c(F)c2[nH]1` (single isomer, unassigned) [Example I-1438] displayed an IC50 in assay [1] of less than 100 nM. In assay [2], this compound came in with a DC50 of less than 1 nM and a Dmax greater than 90%.

`CN(C)C(=O)c1cc2c(-c3ccc(C4CCN(c5ccc(C6CCC(=O)NC6=O)cc5F)CC4)cc3)cc(C3=CCCN(C(=O)CCn4ccnn4)C3)c(F)c2[nH]1` (single isomer, unassigned) [Example I-1439] came in with an IC50 in assay [1] of less than 100 nM. Besides, in assay [2], the DC50 was less than 1 nM and the Dmax was greater than 90%.

`CC(=O)N1CCC=C(c2cc(-c3ccc(C4CCN(c5cccc6c5n(C)c(=O)n6C5CCC(=O)NC5=O)CC4)cc3C)c3cc(C(=O)N(C)C)[nH]c3c2F)C1` (stereo not shown) [Example I-455, 6-(1-Acetyl-1,2,5,6-tetrahydropyridin-3-yl)-4-(4-(1-(1-(2,6-dioxopiperidin-3-yl)-3-methyl-2-oxo-2,3-dihydro-1H-benzo[d]1734midazole-4-yl)piperidin-4-yl)-2-methylphenyl)-7-fluoro-N,N-dim ethyl-1H-indole-2-carboxamide] registered an IC50 in assay [1] of 1000 to 10000 nM. In assay [3], the DC50 was less than 1 nM and the Dmax was greater than 90%.

Regarding `CN(C)C(=O)c1cc2c(F)c(C3=CCCN(C(=O)CCn4cccn4)C3)cc(-c3ccc(C4CN(C(=O)c5ccc(Cl)c(C6CCC(=O)NC6=O)c5)C4)cc3)c2o1` (stereo not shown) [Example I-495, 5-(1-(3-(1H-pyrazol-1-yl)propanoyl)-1,2,5,6-tetrahydropyridin-3-yl)-7-(4-(1-(4-chloro-3-(2,6-dioxopiperidin-3-yl)benzoyl)azetidin-3-yl)phenyl)-4-fluoro-N,N-dimethylbenzofuran-2-carboxamide], in assay [1], the concentration for half-maximal inhibition (IC50) is less than 100 nM. In assay [3], this compound showed a DC50 of 10 to 100 nM and a maximal degradation (Dmax) of 50 to 70%.

In assay [1], `Cc1cc(C2CCN(c3cccc4c3n(C)c(=O)n4C3CCC(=O)NC3=O)CC2)ccc1-c1cc(C2=CCCN(C(=O)C(C)C)C2)c(F)c2[nH]c(C(=O)N(C)C)cc12` (stereo not shown) [Example I-566] displayed an IC50 of 1000 to 10000 nM. Moreover, in assay [3], the DC50 is less than 1 nM and the Dmax was greater than 90%.

On to `CN(C)C(=O)c1cc2c(-c3ccc(C4CCN(c5ccc(C6CCC(=O)NC6=O)cc5F)CC4)cc3)cc(C3=CCCN(C(=O)CCn4cccn4)C3)c(F)c2[nH]1` (stereo not shown) [Example I-628, 6-(1-(3-(1H-pyrazol-1-yl)propanoyl)-1,2,5,6-tetrahydropyridin-3-yl)-4-(4-(I-(4-(2,6-dioxopiperidin-3-yl)-2-fluorophenyl)piperidin-4-yl)phenyl)-7-fluoro-N,N-dimethyl-1H-indole-2-carboxamide], for which, in assay [1], the IC50 was less than 100 nM. Moreover, the Dmax in assay [2] and in assay [3] was greater than 90% throughout. The 50% degradation concentration (DC50) in assay [3] was less than 1 nM.

In assay [1], `COc1cc(N2CCN(CCCCCCCCN(C(=O)[C@H]3CCCN(c4cncc5ccccc45)C3)c3ccc(=O)n(CC(=O)O)c3)CC2)ccc1-c1cc(C2=CCCN(C(=O)CCn3ccnn3)C2)c(F)c2[nH]c(C(=O)N(C)C)cc12` [Example I-1076, (S)-2-(5-(N-(8-(4-(4-(6-(l-(3-(1H-1,2,3-triazol-1-yl)propanoyl)-1,2,5,6-tetrahydropyridin-3-yl)-2-(dimethylcarbamoyl)-7-fluoro-LH-indol-4-yl)-3-methoxyphenyl)piperazin-1-yl)octyl)-1-(isoquinolin-4-yl)piperidine-3-carboxamido)-2-oxopyridin-1 (2H)-yl)acetic acid] registered an IC50 of less than 100 nM. Moreover, in assay [3], the DC50 fell in the range of 10 to 100 nM and the Dmax lay in the range of 50 to 70%.

For the origin of these results see patent publication US20260124309A1, “STAT6 DEGRADERS AND USES THEREOF” (Kymera Therapeutics, Inc., priority 2023, published 2026).
